Test results reported in patent publication US20170008888A1 (KYORIN PHARMACEUTICAL CO., LTD., priority 2014, published 2017).

Key:
Type in all cases: binding
[1] = target: T1, BRD4 bromodomain domain I [BRD4(1)] (Homo sapiens, UniProt O60885); experiment: BRD4 bromodomain domain 1 inhibition assay (TR-FRET); settings: for inhibition at 10 µM: screening concentration 10 μM
T1 construct: BRD4 bromodomain domain I [BRD4(1)]; purchased Cayman Chemicals
How it was run: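 0.5% DMSO, in triplicate, using Cayman BRD4(1) TR-FRET protocol with slight modification. 670/620 nm ratio normalized to 10 μM JQ1, with DMSO control set as 0% inhibition.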

AMPKa1 or AMPKa2 = experiment: Probe-based (AX9989) kinase profiling in Jurkat lysate: AMPKa1 or AMPKa2
How it was run: (§1)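 Percent inhibition was derived from reduced LC/MS fragment intensities of probe-labeled peptides relative to compound-free controls. Before labeling with 5 μM AX9989, Mn2+-supplemented (20 mM) Jurkat lysate was exposed to compound for 15 min at room temperature.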

TAO2 = target: T2, TAO2 (Homo sapiens, UniProt Q9UL54); experiment: Probe-based (AX9989) kinase profiling in Jurkat lysate: TAO2; settings: read-out: TAO2 Inhibition % at indicated screening concentration; for inhibition at 1 µM: screening concentration 1 μM; for inhibition at 10 µM: screening concentration 10 μM
T2 construct: screened for activity against several kinases in Jurkat cells; endogenous in cells; host or cells: Jurkat cell lysate
T2 sequence (Q9UL54 1-1235): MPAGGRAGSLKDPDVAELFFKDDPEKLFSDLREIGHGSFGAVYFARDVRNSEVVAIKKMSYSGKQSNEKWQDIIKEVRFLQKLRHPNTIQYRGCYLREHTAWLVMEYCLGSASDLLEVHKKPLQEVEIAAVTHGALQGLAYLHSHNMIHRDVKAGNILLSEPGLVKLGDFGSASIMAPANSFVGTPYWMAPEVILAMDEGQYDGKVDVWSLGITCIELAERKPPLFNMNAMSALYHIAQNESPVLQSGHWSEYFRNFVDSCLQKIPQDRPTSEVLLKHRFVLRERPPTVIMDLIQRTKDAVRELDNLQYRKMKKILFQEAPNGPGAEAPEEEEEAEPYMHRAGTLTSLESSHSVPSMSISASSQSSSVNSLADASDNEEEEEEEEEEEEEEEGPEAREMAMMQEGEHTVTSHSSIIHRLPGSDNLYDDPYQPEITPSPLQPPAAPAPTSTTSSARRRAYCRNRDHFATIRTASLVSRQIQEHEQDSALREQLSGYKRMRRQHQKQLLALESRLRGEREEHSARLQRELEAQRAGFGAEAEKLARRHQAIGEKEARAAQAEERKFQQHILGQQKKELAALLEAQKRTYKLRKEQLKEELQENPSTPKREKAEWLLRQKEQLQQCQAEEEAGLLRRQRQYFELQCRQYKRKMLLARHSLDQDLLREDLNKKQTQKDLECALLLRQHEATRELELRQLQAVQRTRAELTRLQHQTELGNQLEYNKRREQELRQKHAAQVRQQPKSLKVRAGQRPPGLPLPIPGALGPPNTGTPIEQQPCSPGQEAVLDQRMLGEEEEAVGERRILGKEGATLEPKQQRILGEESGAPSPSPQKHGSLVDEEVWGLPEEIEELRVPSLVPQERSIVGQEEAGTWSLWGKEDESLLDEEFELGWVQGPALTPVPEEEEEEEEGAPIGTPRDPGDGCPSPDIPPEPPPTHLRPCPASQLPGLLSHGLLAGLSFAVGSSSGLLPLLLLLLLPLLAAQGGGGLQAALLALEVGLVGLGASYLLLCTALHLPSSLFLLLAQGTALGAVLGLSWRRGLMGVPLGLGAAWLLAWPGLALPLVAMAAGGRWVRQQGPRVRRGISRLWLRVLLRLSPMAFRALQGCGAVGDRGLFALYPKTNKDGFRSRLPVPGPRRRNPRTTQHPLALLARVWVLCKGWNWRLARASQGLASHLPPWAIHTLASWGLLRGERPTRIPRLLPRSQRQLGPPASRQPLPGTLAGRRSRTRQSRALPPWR
How it was run: as §1

CCOc1cc(C(=O)N2CCN(CCN3CCOCC3)CC2)ccc1Nc1cc2c(cn1)N(C)C(=O)c1ccccc1N2C [Compound T15]
inhibition at 10 µM [1]: > 85% | AMPKa1 or AMPKa2 Inhibition % at indicated screening concentration (AMPKa1 or AMPKa2; screening concentration 1 μM): E (E is ≦35%) | inhibition at 1 µM (TAO2): ≤ 35%

CCOc1cc(C(=O)N2CCN(C(C)=O)CC2)ccc1Nc1cc2c(cn1)N(C)C(=O)c1ccccc1N2C [Compound T18]
inhibition at 10 µM [1]: 70 to 85% | AMPKa1 or AMPKa2 Inhibition % at indicated screening concentration (AMPKa1 or AMPKa2; screening concentration 1 μM): E (E is ≦35%) | inhibition at 1 µM (TAO2): ≤ 35%

CCOc1cc(C(=O)N2CC[C@@H](N3CCN(C)CC3)C2)ccc1Nc1cc2c(cn1)N(C)C(=O)c1ccccc1N2C [Compound T20]
inhibition at 5 µM ([1]; Screening concentration 5 μM): > 85% | AMPKa1 or AMPKa2 Inhibition % at indicated screening concentration (AMPKa1 or AMPKa2; screening concentration 1 μM): E (E is ≦35%) | inhibition at 1 µM (TAO2): ≤ 35%

CCOc1cc(C(=O)N2CC[C@H](C#N)C2)ccc1Nc1cc2c(cn1)N(C)C(=O)c1ccccc1N2C [Compound T22]
inhibition at 10 µM [1]: < 70% | AMPKa1 or AMPKa2 Inhibition % at indicated screening concentration (AMPKa1 or AMPKa2; screening concentration 1 μM): E (E is ≦35%) | inhibition at 1 µM (TAO2): ≤ 35%

CCOc1cc(C(=O)N2CCC(N3CCCN(C)CC3)CC2)ccc1Nc1cc2c(cn1)N(C)C(=O)c1ccccc1N2C [Compound T31]
inhibition at 10 µM [1]: > 85% | AMPKa1 or AMPKa2 Inhibition % at indicated screening concentration (AMPKa1 or AMPKa2; screening concentration 1 μM): E (E is ≦35%) | inhibition at 1 µM (TAO2): ≤ 35%

CN1CCN(C2CCN(C(=O)c3ccc(Nc4cc5c(cn4)N(C)C(=O)c4ccccc4N5C)c(OCCF)c3)CC2)CC1 [Compound T34]
inhibition at 10 µM [1]: 70 to 85% | AMPKa1 or AMPKa2 Inhibition % at indicated screening concentration (AMPKa1 or AMPKa2; screening concentration 1 μM): E (E is ≦35%) | inhibition at 1 µM (TAO2): ≤ 35%

CCOc1cc(C(=O)N2CCC(NC3CCN(C)CC3)C2)ccc1Nc1cc2c(cn1)N(C)C(=O)c1ccccc1N2C (stereo not drawn) [Compound T42]
inhibition at 10 µM [1]: > 85% | AMPKa1 or AMPKa2 Inhibition % at indicated screening concentration (AMPKa1 or AMPKa2; screening concentration 1 μM): E (E is ≦35%) | inhibition at 1 µM (TAO2): ≤ 35%

CC(C)Oc1cc(C(=O)N2CCC[C@H](O)C2)ccc1Nc1cc2c(cn1)N(C)C(=O)c1ccccc1N2C [Compound T48]
inhibition at 10 µM [1]: 70 to 85% | AMPKa1 or AMPKa2 Inhibition % at indicated screening concentration (AMPKa1 or AMPKa2; screening concentration 10 μM): E (E is ≦35%) | inhibition at 10 µM (TAO2): ≤ 35%

CC(C)Oc1cc(C(=O)N2CCN(C3CCN(C)CC3)CC2)ccc1Nc1cc2c(cn1)N(C)C(=O)c1ccccc1N2C [Compound T49]
inhibition at 10 µM [1]: > 85% | AMPKa1 or AMPKa2 Inhibition % at indicated screening concentration (AMPKa1 or AMPKa2; screening concentration 1 μM): E (E is ≦35%) | inhibition at 1 µM (TAO2): ≤ 35%

CC(C)Oc1cc(C(=O)N2CC[C@@H](NCCF)C2)ccc1Nc1cc2c(cn1)N(C)C(=O)c1ccccc1N2C [Compound T50]
inhibition at 10 µM [1]: > 85% | AMPKa1 or AMPKa2 Inhibition % at indicated screening concentration (AMPKa1 or AMPKa2; screening concentration 1 μM): E (E is ≦35%) | inhibition at 1 µM (TAO2): ≤ 35%

CCOc1cc(C(=O)N2CCN(c3cccnc3)CC2)ccc1Nc1cc2c(cn1)N(C)C(=O)c1occc1N2C [Compound T56]
inhibition at 10 µM [1]: 70 to 85% | AMPKa1 or AMPKa2 Inhibition % at indicated screening concentration (AMPKa1 or AMPKa2; screening concentration 1 μM): E (E is ≦35%) | inhibition at 1 µM (TAO2): ≤ 35%

CCOc1cc(C(=O)N[C@H]2CC[C@H](O)CC2)ccc1Nc1cc2c(cn1)N(C)C(=O)c1ccccc1N2C [Compound T62]
inhibition at 10 µM [1]: 70 to 85% | AMPKa1 or AMPKa2 Inhibition % at indicated screening concentration (AMPKa1 or AMPKa2; screening concentration 1 μM): E (E is ≦35%) | inhibition at 1 µM (TAO2): ≤ 35%

CCOc1cc(C(=O)N(C)[C@H]2CC[C@H](O)CC2)ccc1Nc1cc2c(cn1)N(C)C(=O)c1ccccc1N2C [Compound T64]
inhibition at 10 µM [1]: 70 to 85% | AMPKa1 or AMPKa2 Inhibition % at indicated screening concentration (AMPKa1 or AMPKa2; screening concentration 1 μM): E (E is ≦35%) | inhibition at 1 µM (TAO2): ≤ 35%

CN1CCC(N2CCN(C(=O)c3ccc(Nc4cc5c(cn4)N(C)C(=O)c4ccccc4N5C)c(F)c3)CC2)CC1 [Compound T70]
inhibition at 10 µM [1]: < 70% | AMPKa1 or AMPKa2 Inhibition % at indicated screening concentration (AMPKa1 or AMPKa2; screening concentration 1 μM): E (E is ≦35%) | inhibition at 1 µM (TAO2): ≤ 35%

CN1CCC(N2CCN(C(=O)c3ccc(Nc4cc5c(cn4)N(C)C(=O)c4ccccc4N5C)c(OC(F)F)c3)CC2)CC1 [Compound T76]
inhibition at 10 µM [1]: 70 to 85% | AMPKa1 or AMPKa2 Inhibition % at indicated screening concentration (AMPKa1 or AMPKa2; screening concentration 1 μM): E (E is ≦35%) | inhibition at 1 µM (TAO2): ≤ 35%

CN1C(=O)c2c(F)cccc2Oc2cc(N[C@H]3CC[C@H](O)CC3)ncc21 [Compound T92]
IC50 [1]: < 2 µM | AMPKa1 or AMPKa2 Inhibition % at indicated screening concentration (AMPKa1 or AMPKa2; screening concentration 10 μM): E (E is ≦35%) | inhibition at 10 µM (TAO2): 50 to 75%

COc1cccc2c1Oc1cc(N[C@H]3CC[C@H](O)CC3)ncc1N(C)C2=O [Compound T95]
IC50 [1]: 2 to 5 µM | AMPKa1 or AMPKa2 Inhibition % at indicated screening concentration (AMPKa1 or AMPKa2; screening concentration 10 μM): D (D is >35% to ≦50%) | inhibition at 10 µM (TAO2): 50 to 75%

CN1C(=O)c2c(F)ccc(F)c2Oc2cc(N[C@H]3CC[C@H](O)CC3)ncc21 [Compound T97]
IC50 [1]: 2 to 5 µM | AMPKa1 or AMPKa2 Inhibition % at indicated screening concentration (AMPKa1 or AMPKa2; screening concentration 10 μM): E (E is ≦35%) | inhibition at 10 µM (TAO2): 50 to 75%

CCOc1cc(C(=O)N2CCN(C3CCN(C)CC3)CC2)ccc1Nc1cc2c(cn1)N(C)C(=O)c1ccccc1O2 [Compound T98]
IC50 [1]: 2 to 5 µM | AMPKa1 or AMPKa2 Inhibition % at indicated screening concentration (AMPKa1 or AMPKa2; screening concentration 10 μM): E (E is ≦35%) | inhibition at 10 µM (TAO2): ≤ 35%

CCOc1cc(C(=O)N2CCN(C3CCN(C)CC3)CC2)ccc1Nc1cc2c(cn1)N(C)C(=O)c1c(F)cccc1O2 [Compound T102]
IC50 [1]: < 2 µM | AMPKa1 or AMPKa2 Inhibition % at indicated screening concentration (AMPKa1 or AMPKa2; screening concentration 10 μM): E (E is ≦35%) | inhibition at 10 µM (TAO2): ≤ 35%

C[C@@H]1C[C@H](Nc2cc3c(cn2)N(C)C(=O)c2ccccc2N3C)CC[C@H]1O [Compound T115]
IC50 [1]: 2 to 5 µM | AMPKa1 or AMPKa2 Inhibition % at indicated screening concentration (AMPKa1 or AMPKa2; screening concentration 10 μM): E (E is ≦35%) | inhibition at 10 µM (TAO2): ≤ 35%
